These results are taken from patent publication US20260274892A1, “MACROCYCLIC BROAD SPECTRUM ANTIBIOTICS” (RQx Pharmaceuticals, Inc., priority 2017, published 2026).

The experiment concerns Escherichia coli ATCC 25922. Put plainly: Minimum inhibitory concentration (MIC), CLSI broth micro-dilution, E. coli. The class given is cell-based. The note with it: Escherichia coli. The method, boiled down: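 Colonies grown 20 h at 35° C on Trypticase Soy agar (MRSA) or Luria agar (E. coli) were suspended in cation-adjusted Mueller Hinton broth with 0.002% Tween-80. Suspensions were added at OD600 0.0005 to 10-point twofold compound dilutions, then incubated 22 h at 35° C.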
(In general: Dilution methods test growth across graded concentrations, often in twofold steps.)

Where [1] appears, read: ATCC25922, 22 h, Table 7, cation adjusted Mueller Hinton Broth + 0.002% Tween-80, 35° C.

The term MIC denotes the lowest concentration that inhibits growth of the organism.

Structures are written as SMILES.

Turning to `Cc1nc(-c2ccc(C(C)(C)C)cc2)nc(C)c1C(=O)N[C@@H](CCN)C(=O)N(C)[C@@H]1C(=O)N[C@@H](C)C(=O)N[C@H](C(=O)NCC#N)Cc2ccc(OCCN)c(c2)-c2cc1cc(NCCN)c2O` (racemic) [Compound 589, rac-(8S,11S,14S)-3-(2-aminoethoxy)-17-(2-aminoethylamino)-N-(cyanomethyl)-18-hydroxy-11-methyl-14-[methyl-[rac-(2S)-4-amino-2-[[2-(4-tert-butylphenyl)-4,6-dimethyl-pyrimidine-5-carbonyl]amino]butanoyl]amino]-10,13-dioxo-9,12-diazatricyclo[13.3.1.12,6]icosa-1(18),2(20),3,5,15(19),16-hexaene-8-carboxamide], the MIC under setting [1] amounted to 1 µM. With `Cc1nc(-c2ccc(C(C)(C)C)cc2)nc(C)c1C(=O)N[C@@H](CNS(N)(=O)=O)C(=O)N(C)[C@@H]1C(=O)N[C@@H](C)C(=O)N[C@H](C(=O)NCC#N)Cc2ccc(OCCN)c(c2)-c2cc1cc(OCCNC(=N)N)c2O` (racemic) [Compound 590, rac-(8S,11S,14S)-3-(2-aminoethoxy)-N-(cyanomethyl)-17-(2-guanidinoethoxy)-18-hydroxy-11-methyl-14-[methyl-[rac-(2S)-2-[[2-(4-tert-butylphenyl)-4,6-dimethyl-pyrimidine-5-carbonyl]amino]-3-(sulfamoylamino)propanoyl]amino]-10,13-dioxo-9,12-diazatricyclo[13.3.1.12,6]icosa-1(18),2(20),3,5,15(19),16-hexaene-8-carboxamide], the minimum inhibitory concentration (MIC) (ATCC25922, Table 7, cation adjusted Mueller Hinton Broth + 0.002% Tween-80, 35° C., 22 hours) is 0.38 µM. Consider `COc1c(OC[C@H](O)CN)cc2cc1-c1cc(cc(OC[C@H](O)CN)c1OC)[C@H](N(C)C(=O)[C@H](CCN)NC(=O)c1c(C)nc(-c3ccc(C(C)(C)C)cc3)nc1C)C(=O)N[C@@H](C)C(=O)N[C@H](C(=O)NCC#N)C2` (racemic) [Compound 591, rac-(8S,11S,14S)-N-(cyanomethyl)-3,18-dimethoxy-11-methyl-14-[methyl-[rac-(2S)-4-amino-2-[[2-(4-tert-butylphenyl)-4,6-dimethyl-pyrimidine-5-carbonyl]amino]butanoyl]amino]-10,13-dioxo-4,17-bis[rac-(2R)-3-amino-2-hydroxy-propoxy]-9,12-diazatricyclo[13.3.1.12,6]icosa-1(18),2(20),3,5,15(19),16-hexaene-8-carboxamide], for which, under setting [1], the MIC amounted to 0.25 µM. The same measure, in the same setting: next, `COc1c(OCCN)cc2cc1-c1cc(cc(OCCN)c1OC)[C@H](N(C)C(=O)[C@H](CCN)NC(=O)c1c(C)nc(-c3ccc(C(C)(C)C)cc3)nc1C)C(=O)N[C@@H](C)C(=O)N[C@H](C(=O)NCC#N)C2` (racemic) [Compound 592, rac-(8S,11S,14S)-4,17-bis(2-aminoethoxy)-N-(cyanomethyl)-3,18-dimethoxy-11-methyl-14-[methyl-[rac-(2S)-4-amino-2-[[2-(4-tert-butylphenyl)-4,6-dimethyl-pyrimidine-5-carbonyl]amino]butanoyl]amino]-10,13-dioxo-9,12-diazatricyclo[13.3.1.12,6]icosa-1(18),2(20),3,5,15(19),16-hexaene-8-carboxamide]: 0.19 µM.

As to `COc1c(OC[C@H](O)CN)cc2cc1-c1cc(cc(OC[C@H](O)CN)c1OC)[C@H](N(C)C(=O)[C@H](CNS(N)(=O)=O)NC(=O)c1c(C)nc(-c3ccc(C(C)(C)C)cc3)nc1C)C(=O)N[C@@H](C)C(=O)N[C@H](C(=O)NCC#N)C2` (racemic) [Compound 593, rac-(8S,11S,14S)-N-(cyanomethyl)-3,18-dimethoxy-11-methyl-14-[methyl-[rac-(2S)-2-[[2-(4-tert-butylphenyl)-4,6-dimethyl-pyrimidine-5-carbonyl]amino]-3-(sulfamoylamino)propanoyl]amino]-10,13-dioxo-4,17-bis[rac-(2R)-3-amino-2-hydroxy-propoxy]-9,12-diazatricyclo[13.3.1.12,6]icosa-1(18),2(20),3,5,15(19),16-hexaene-8-carboxamide], the MIC under setting [1] was found to be 1.5 µM.
